Results on 33 compounds are retold here after patent US20090209536A1, “AMINOQUINAZOLINE CANNABINOID RECEPTOR MODULATORS FOR TREATMENT OF DISEASE” (KALYPSYS, INC., priority 2007, published 2009).

Assay [1] deals with T1, human cannabinoid receptor type 2 (Homo sapiens, UniProt P34972).
T1 construct: expressed in transfected cells; membrane preparation
As to the kind of experiment: Human CB2 Radioligand Binding Assay. The settings on record: membranes from stably transfected CHO CB2 cells. The method, boiled down:
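Filtration competition binding on membranes from CHO cells stably expressing human CB2, with [3H]CP-55,940 at its lot-specific Kd, in 50 mM Tris-HCl pH 7.4, EGTA, MgCl2, 5 mg/ml BSA, 1% DMSO; 90 min at 30° C. Compounds at 10 uM single point or dose-response; bound radioactivity by scintillation, 100 nM CP-55,940 as 100% efficacy.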

For assay [2], the target named is T2, human cannabinoid receptor type 1 (Homo sapiens, UniProt P21554).
T2 construct: purchased Perkin Elmer RBHCB1M; host or cells: HEK 293 EBNA cells
T2 sequence (P21554 whole entry): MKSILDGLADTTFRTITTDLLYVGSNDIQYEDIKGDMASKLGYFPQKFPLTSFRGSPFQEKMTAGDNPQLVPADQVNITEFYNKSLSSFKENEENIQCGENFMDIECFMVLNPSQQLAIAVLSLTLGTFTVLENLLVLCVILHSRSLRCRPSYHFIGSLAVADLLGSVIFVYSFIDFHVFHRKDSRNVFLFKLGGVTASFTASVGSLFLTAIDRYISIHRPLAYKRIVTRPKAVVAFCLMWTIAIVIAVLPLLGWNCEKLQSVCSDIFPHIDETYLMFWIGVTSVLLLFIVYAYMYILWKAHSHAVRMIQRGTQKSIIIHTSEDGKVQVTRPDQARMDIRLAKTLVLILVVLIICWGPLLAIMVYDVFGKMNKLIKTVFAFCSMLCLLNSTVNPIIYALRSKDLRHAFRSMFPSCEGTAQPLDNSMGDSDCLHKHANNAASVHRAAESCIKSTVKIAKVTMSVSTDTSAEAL
Nature of the assay: Human CB1 Radioligand Binding Assay (basis of selectivity, CB2 vs. CB1). The settings on record: CB1: HEK 293 EBNA cells expressing human CB1; CB2: CHO CB2 membranes. The procedure: 2. Human CB1 Radioligand Binding Assay
The incubation buffer was composed of 50 mM Tris-HCl pH 7.4, 2.5 mM EDTA, 5 mM MgCl2, 5.0 mg/ml fatty acid free BSA and the wash buffer was composed of 50 mM Tris-HCl pH 7.4, 2.5 mM EDTA, 5 mM MgCl2, 0.5 mg/ml fatty acid free BSA.

The mark [3] stands for this setting: competition with [3H] CP-55,940, read-out: CB2 Ligand Binding Asssay EC50.
Where [4] appears, read: CB2 Ligand Binding Asssay EC50, competition with [3H] CP-55,940.

Read-outs that look alike come from different tables or passages of the source.

In general, EC50 refers to the midpoint of the concentration-response curve.

T1 sequence (P34972 whole entry): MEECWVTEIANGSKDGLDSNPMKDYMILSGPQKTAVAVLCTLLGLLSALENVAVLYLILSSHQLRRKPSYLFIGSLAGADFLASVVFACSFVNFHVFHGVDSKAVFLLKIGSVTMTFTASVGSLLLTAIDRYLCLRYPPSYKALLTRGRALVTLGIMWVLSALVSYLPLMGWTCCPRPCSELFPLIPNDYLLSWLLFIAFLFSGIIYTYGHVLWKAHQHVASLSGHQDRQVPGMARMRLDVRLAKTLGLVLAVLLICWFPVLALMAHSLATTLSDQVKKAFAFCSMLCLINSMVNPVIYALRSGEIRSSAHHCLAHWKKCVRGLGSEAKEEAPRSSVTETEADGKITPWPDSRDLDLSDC

As to `Clc1ccc2c(N3CCCCC3)nc(C3CCCCC3)nc2c1` [Example 164, 7-Chloro-2-cyclohexyl-4-(piperidin-1-yl)quinazoline], the EC50 in assay [1] (setting [3]) is < 1000 nM. Further, in assay [2], the “Selectivity, CB2 vs. CB1” value is reported as “+ (+ indicates > 10−fold)”.
For `Clc1ccc2c(N3CCOCC3)nc(C3CCCCC3)nc2c1` [Example 165, 4-(7-Chloro-2-cyclohexylquinazolin-4-yl)morpholine], the EC50 in assay [1] (setting [4]) was > 1000 nM. For the same compound, the “Selectivity, CB2 vs. CB1” value in assay [2] was “+ (+ indicates > 10−fold)”.
`CN1CCN(c2nc(C3CCCCC3)nc3cc(Cl)ccc23)CC1` [Example 166, 7-Chloro-2-cyclohexyl-4-(4-methylpiperazin-1-yl)quinazoline]: the EC50 in assay [1] (setting [3]) is < 1000 nM. The “Selectivity, CB2 vs. CB1” value in assay [2] is listed as “+ (+ indicates > 10−fold)”.
The corresponding values for `Clc1ccc2nc(C3CCCCC3)nc(N3CCCC3)c2c1` [Example 167, 6-Chloro-2-cyclohexyl-4-(pyrrolidin-1-yl)quinazoline] are < 1000 nM and “+ (+ indicates > 10−fold)”.
The corresponding values for `CN1CCN(c2nc(-c3ccccc3Cl)nc3ccc(C(C)(C)C)cc23)CC1` [Example 168, 6-tert-Butyl-2-(2-chlorophenyl)-4-(4-methylpiperazin-1-yl)quinazoline] are < 1000 nM and “+ (+ indicates > 10−fold)”.
The corresponding values for `CC(C)(C)c1ccc2nc(-c3ccccc3Cl)nc(N3CCSCC3)c2c1` [Example 169, 4-(6-tert-Butyl-2-(2-chlorophenyl)quinazolin-4-yl)thiomorpholine] are < 1000 nM and “+ (+ indicates > 10−fold)”.
In the case of `CC(C)(C)c1ccc2nc(-c3ccccc3Cl)nc(N3CCCCC3)c2c1` [Example 170, 6-tert-Butyl-2-(2-chlorophenyl)-4-(piperidin-1-yl)quinazoline], the EC50 in assay [1] (setting [3]) was < 1000 nM. Besides, the “Selectivity, CB2 vs. CB1” value in assay [2] is “+ (+ indicates > 10−fold)”.
Taken in the same sequence, the figures for `CC(C)(C)c1ccc2nc(-c3ccccc3Cl)nc(N3CCCC3)c2c1` [Example 171, 6-tert-Butyl-2-(2-chlorophenyl)-4-(pyrrolidin-1-yl)quinazoline] were < 1000 nM and “+ (+ indicates > 10−fold)”.
Taken in the same sequence, the figures for `COc1ccc2nc(-c3ccccc3Cl)nc(N3CCSCC3)c2c1` [Example 172, 4-(2-(2-Chlorophenyl)-6-methoxyquinazolin-4-yl)thiomorpholine] were < 1000 nM and “+ (+ indicates > 10−fold)”.
Taken in the same sequence, the figures for `CCc1ccc2nc(-c3ccccc3Cl)nc(N3CCN(C)CC3)c2c1` [Example 173, 2-(2-Chlorophenyl)-6-ethyl-4-(4-methylpiperazin-1-yl)quinazoline] were < 1000 nM and “+ (+ indicates > 10−fold)”.
`CCc1ccc2nc(-c3ccccc3Cl)nc(N3CCSCC3)c2c1` [Example 174, 4-(2-(2-Chlorophenyl)-6-ethylquinazolin-4-yl)thiomorpholine]: the EC50 in assay [1] (setting [3]) is < 1000 nM. The “Selectivity, CB2 vs. CB1” value in assay [2] is “+ (+ indicates > 10−fold)”.
Taken in the same sequence, the figures for `CCc1ccc2nc(-c3ccccc3Cl)nc(N3CCCCC3)c2c1` [Example 175, 2-(2-Chlorophenyl)-6-ethyl-4-(piperidin-1-yl)quinazoline] were < 1000 nM and “− (− indicates ≦ 10−fold)”.
Taken in the same sequence, the figures for `CCc1ccc2nc(-c3ccccc3Cl)nc(N3CCCC3)c2c1` [Example 176, 2-(2-Chlorophenyl)-6-ethyl-4-(pyrrolidin-1-yl)quinazoline] were < 1000 nM and “+ (+ indicates > 10−fold)”.
Taken in the same sequence, the figures for `COc1ccc2nc(-c3ccccc3Cl)nc(N3CCN(C)CC3)c2c1` [Example 177, 2-(2-Chlorophenyl)-6-methoxy-4-(4-methylpiperazin-1-yl)quinazoline] were < 1000 nM and “− (− indicates ≦ 10−fold)”.
With `COc1ccc2nc(-c3ccccc3Cl)nc(N3CCCCC3)c2c1` [Example 178, 2-(2-Chlorophenyl)-6-methoxy-4-(piperidin-1-yl)quinazoline], the EC50 in assay [1] (setting [3]) is < 1000 nM. Besides, in assay [2], the “Selectivity, CB2 vs. CB1” value is “− (− indicates ≦ 10−fold)”.
Taken in the same sequence, the figures for `COc1ccc2nc(-c3ccccc3Cl)nc(N3CCCC3)c2c1` [Example 179, 2-(2-Chlorophenyl)-6-methoxy-4-(pyrrolidin-1-yl)quinazoline] were < 1000 nM and “+ (+ indicates > 10−fold)”.
Taken in the same sequence, the figures for `CN1CCN(c2nc(-c3ccccc3Cl)nc3ccc(OC(F)(F)F)cc23)CC1` [Example 180, 2-(2-Chlorophenyl)-4-(4-methylpiperazin-1-yl)-6-(trifluoromethoxy) quinazoline] were < 1000 nM and “− (− indicates ≦ 10−fold)”.
The corresponding values for `FC(F)(F)Oc1ccc2nc(-c3ccccc3Cl)nc(N3CCCCC3)c2c1` [Example 181, 2-(2-Chlorophenyl)-4-(piperidin-1-yl)-6-(trifluoromethoxy) quinazoline] are > 1000 nM and “− (− indicates ≦ 10−fold)”.
As for `FC(F)(F)Oc1ccc2nc(-c3ccccc3Cl)nc(N3CCCC3)c2c1` [Example 182, 2-(2-Chlorophenyl)-4-(pyrrolidin-1-yl)-6-(trifluoromethoxy) quinazoline], the EC50 in assay [1] (setting [4]) is > 1000 nM. Besides, the “Selectivity, CB2 vs. CB1” value in assay [2] is “− (− indicates ≦ 10−fold)”.
For `Clc1ccccc1-c1nc(N2CCCC2)c2cc(Br)ccc2n1` [Example 184, 6-Bromo-2-(2-chlorophenyl)-4-(pyrrolidin-1-yl)quinazoline], the EC50 in assay [1] (setting [3]) is < 1000 nM. Moreover, the “Selectivity, CB2 vs. CB1” value in assay [2] is recorded as “− (− indicates ≦ 10−fold)”.
Taken in the same sequence, the figures for `CC(=O)N1CCN(c2nc(C3CCCCC3)nc3ccc(Cl)cc23)CC1` [Example 185, 1-(4-(6-Chloro-2-cyclohexylquinazolin-4-yl)piperazin-1-yl)ethanone] were < 1000 nM and “− (− indicates ≦ 10−fold)”.
`COc1ccc2nc(C3CCCCC3)nc(N3CCN(C(C)=O)CC3)c2c1` [Example 186, 1-(4-(2-Cyclohexyl-6-methoxyquinazolin-4-yl)piperazin-1-yl)ethanone]: the EC50 in assay [1] (setting [3]) is < 1000 nM. In assay [2], the “Selectivity, CB2 vs. CB1” value was “− (− indicates ≦ 10−fold)”.
The corresponding values for `Cc1ccccc1-c1nc(N2CCCCC2)c2ccccc2n1` [Example 187, 4-Piperidin-1-yl-2-o-tolylquinazoline] are > 1000 nM and “− (− indicates ≦ 10−fold)”.
As for `Clc1ccccc1-c1nc(NCC2CCCO2)c2ccccc2n1` (stereo not drawn) [Example 188, 2-(2-Chlorophenyl)-N-((tertrahydrofuran-2-yl)methyl)quinzaoline-4-amine], the 50% effective concentration (EC50) in assay [1] (setting [3]) is > 1000 nM. For the same compound, the “Selectivity, CB2 vs. CB1” value in assay [2] is listed as “− (− indicates ≦ 10−fold)”.
On to `CC(C)(C)CCNc1nc(-c2ccccc2Cl)nc2ccccc12` [Example 189, 2-(2-Chlorophenyl)-N-(3,3-dimethylbutyl)quinazolin-4-amine], for which the EC50 in assay [1] (setting [3]) is > 1000 nM. In assay [2], the “Selectivity, CB2 vs. CB1” value was “− (− indicates ≦ 10−fold)”.
The corresponding values for `Clc1ccccc1-c1nc(NCC23CC4CC(CC(C4)C2)C3)c2ccccc2n1` [Example 190, 2-(2-Chlorophenyl)-N-(1-adamanthylmethyl)quinazolin-4-amine] are > 1000 nM and “− (− indicates ≦ 10−fold)”.
The corresponding values for `Clc1ccccc1-c1nc(NCCc2ccccn2)c2ccccc2n1` [Example 191, 2-(2-Chlorophenyl)-N-(2-(pyridine-2-yl)ethyl)quinazolin-4-amine] are > 1000 nM and “− (− indicates ≦ 10−fold)”.
Taken in the same sequence, the figures for `Clc1ccccc1-c1nc(NCCCN2CCOCC2)c2ccccc2n1` [Example 192, 2-(2-Chlorophenyl)-N-(3-morpholinopropyl)quinazolin-4-amine] were > 1000 nM and “− (− indicates ≦ 10−fold)”.
Take `Clc1ccccc1-c1nc(NCC2CCCCC2)c2ccccc2n1` [Example 193, 2-(2-Chlorophenyl)-N-(cyclohexylmethyl)quinazolin-4-amine]: in assay [1] (setting [4]), the EC50 is > 1000 nM. The “Selectivity, CB2 vs. CB1” value in assay [2] is reported as “− (− indicates ≦ 10−fold)”.
Turning to `CN(CC1CCCCC1)c1nc(-c2ccccc2Cl)nc2ccccc12` [Example 194, 2-(2-Chlorophenyl)-N-(cyclohexylmethyl)-N-methylquinazolin-4-amine], the EC50 in assay [1] (setting [3]) was < 1000 nM. For the same compound, in assay [2], the “Selectivity, CB2 vs. CB1” value is listed as “− (− indicates ≦ 10−fold)”.
The corresponding values for `FC(F)(F)c1ccc(Cc2nc(N3CCCCC3)c3ccccc3n2)cc1` [Example 195, 4-(Piperidin-1-yl)-2-(4-(trifluoromethyl)benzyl)quinazoline] are > 1000 nM and “− (− indicates ≦ 10−fold)”.
Taken in the same sequence, the figures for `CCOC(=O)N1CCN(c2nc(Cc3cccc(OC)c3)nc3ccccc23)CC1` [Example 196, Ethyl 4-(2-(3-Methoxybenzyl)quinazolin-4-yl)piperazine-1-carboxylate] were > 1000 nM and “− (− indicates ≦ 10−fold)”.
Taken in the same sequence, the figures for `Clc1nccc(N2CCN(c3nc(-c4ccccc4Cl)nc4ccccc34)CC2)n1` [Example 197, 2-(2-Chlorophenyl)-4-(4-(2-chloropyrimidin-4-yl)piperazin-1-yl)quinazoline] were < 1000 nM and “+ (+ indicates > 10−fold)”.
